A short description of experiment [1]: inhibitors of PAF-induced NFkB signaling in CF airway cells, dose response, cell-based, uHTS hits, panel, cytotoxicity readout (AID 624344). The conditions noted are these: CF bronchial epithelial cells, PAF-induced NFkB reporter inhibition; with PAF, mean of runs.
In another experiment the test system is Cytotoxicity. The description is as above. The conditions noted are these: CF bronchial epithelial cells, mean of runs.

Calls of active or inactive are those of the source. How the calls were made is not given here. A value given as a limit tells only on which side of the number the result lay.

`COc1ccc2[nH]c3c(c2c1)CC(C)NC3=O` (stereo not drawn): the IC50 in experiment [1] was 1.3 µM; in the experiment with Cytotoxicity it was 55.3 µM (inactive).
In the case of `Cc1c(C(=O)OC2CCCC2)[nH]c2c1C(=O)CC(c1ccco1)C2` (stereo not drawn), the IC50 entry in experiment [1] is “inactive”. Also, in the experiment on Cytotoxicity, the half-maximal inhibitory concentration (IC50) was 46.3 µM.
`COc1ccc(-c2nc(N3CCOCC3)nc3n[nH]c(N)c23)cc1`: the IC50 in experiment [1] was 6.92 µM; in the experiment with Cytotoxicity it was 9.47 µM.
`O=C(Nc1ccc(C(=O)N2CCOCC2)cc1)Nc1cccc(C(F)(F)F)c1`: the figures for the half-inhibitory concentration (IC50) (in experiment [1]; in the experiment on Cytotoxicity) were 1.69 µM and > 79 µM (inactive), respectively.
`COc1cccc(NC(=O)Nc2nnc(CC(=O)NCc3ccccc3)s2)c1`: the IC50 in experiment [1] was 5.09 µM; in the experiment on Cytotoxicity, 52.3 µM (inactive).
For `Nc1ncc(-c2ccccc2)c(-c2ccc(O)cc2O)n1`, in that order: 4.01 µM and > 79 µM (inactive).
Regarding `Oc1ccc(C[C@H]2CNC(=S)N2CC2CCCN2C[C@H](Cc2ccc(O)cc2)N2C[C@H](Cc3ccc(O)cc3)N(CC3CCCCC3)C2=S)cc1` (stereo partly drawn), the IC50 is 10.3 µM in experiment [1] and 15.4 µM with Cytotoxicity.
In the case of `COc1ccc(C(C(=O)NCC2CCCO2)N(Cc2cccs2)C(=O)c2snc(C(N)=O)c2N)cc1` (stereo not drawn), the results for the IC50 (in experiment [1]; with Cytotoxicity) were 3.11 µM and 44.2 µM, respectively.
Regarding `Cn1c(Sc2ccc(Cl)cc2)c(C=O)c2ccccc21`, the IC50 was 2.48 µM in experiment [1] and 17.3 µM with Cytotoxicity.
Turning to `COCc1cc(S(=O)c2ccc(Cl)cc2)nc(C)n1` (stereo not drawn), the IC50 in experiment [1] is 3.13 µM; with Cytotoxicity it was 22 µM.
Take `O=S(=O)(c1cccc2cnccc12)N1CCCNCC1`: the IC50 is 4.07 µM in experiment [1] and 8.16 µM with Cytotoxicity.
For the compound `CCCCCc1cc(O)c2c(C)cc(=O)oc2c1`, the IC50 in experiment [1] was 4.83 µM; in the experiment on Cytotoxicity, 7.62 µM.
As to `O=C(Nc1ccc([N+](=O)[O-])cc1)Nc1ccc(Cl)cc1F`, the 50% inhibitory concentration (IC50) in experiment [1] is 2.92 µM; in the experiment with Cytotoxicity, 2.19 µM.
Take `Brc1ccc2ncnc(NCc3ccccc3)c2c1`: the IC50 in experiment [1] is 0.506 µM; in the experiment with Cytotoxicity, 6.15 µM.
In the case of `COc1ccc(-c2cc(NC=O)c3ncc(-c4cc(OC)c(OC)c(OC)c4)n3c2)cc1`, the results for the IC50 (in experiment [1]; in the experiment on Cytotoxicity) were > 79 µM (inactive) and 28.9 µM, respectively.
For `CCOC(=O)c1c(C)cc2c(CO)n[nH]c(=O)c2c1C`, in that order: 6.83 µM and 62.8 µM (inactive).
As for `CC(=O)c1c(C)n(-c2ccccc2)c2ccc(O)cc12`, the results for the IC50 (in experiment [1]; in the experiment on Cytotoxicity) were 5.58 µM and > 79 µM (inactive), respectively.
`CCCc1nc(Cl)c(C#N)c2c1CCCC2`: the results for the IC50 (in experiment [1]; in the experiment with Cytotoxicity) were 4.3 µM and 73 µM (inactive), respectively.
As for `C=C(C)[C@@H]1CCC2(C(=O)O)CC[C@]3(C)[C@H](CC[C@@H]4[C@@]5(C)CCC(=O)C(C)(C)[C@@H]5CC[C@]43C)[C@@H]12` (stereo partly drawn), the results for the IC50 (in experiment [1]; in the experiment with Cytotoxicity) were 8.27 µM and 12.9 µM, respectively.
On to `COc1ccc(-c2cc(=O)oc3cc(OC(=O)C4CCCCC4)ccc23)cc1`, for which the IC50 in experiment [1] was 2.37 µM; in the experiment with Cytotoxicity, > 79 µM (inactive).
Consider `CCOC(=O)c1c(C)[nH]c(C(=O)N/N=C/c2ccc(Br)cc2)c1C`, for which the values for the IC50 (in experiment [1]; in the experiment with Cytotoxicity) were 14.6 µM and 45.9 µM, respectively.
Regarding `COc1ccc(CNc2ncnc3ccccc23)cc1`, the IC50 was 15.3 µM in experiment [1] and 59.5 µM (inactive) in the experiment on Cytotoxicity.
With `c1ccc2c(-c3ccc4nncn4c3)cncc2c1`, the figures for the IC50 (in experiment [1]; in the experiment on Cytotoxicity) were 1.42 µM and > 79 µM (inactive), respectively.
With `NC(N)=NN=C(c1ccc(F)cc1)c1ccc(C(F)(F)F)cc1`, the figures for the concentration for half-maximal inhibition (IC50) (in experiment [1]; in the experiment with Cytotoxicity) were 5.87 µM and 25.3 µM, respectively.
For the compound `Cc1c(-c2ccccc2)oc2c(C(=O)N3CCN(c4ccc([N+](=O)[O-])cc4)CC3)cccc2c1=O`, the concentration for half-maximal inhibition (IC50) in experiment [1] was 0.854 µM; in the experiment on Cytotoxicity, > 79 µM (inactive).
Turning to `Cc1ccc(C)c(S(=O)(=O)N(C(=O)c2ccncc2)c2ccc(OC(=O)c3ccncc3)cc2)c1`, the concentration for half-maximal inhibition (IC50) in experiment [1] is 2.37 µM; in the experiment with Cytotoxicity, 26.2 µM.
Regarding `COC(=O)c1ccc(-c2ccc(OC)c([C@H]3[C@H]4C=CC[C@@H](C)[C@@H]4C(=O)N3Cc3ccccc3)c2)cc1`, the results for the IC50 (in experiment [1]; with Cytotoxicity) were 2.4 µM and 29.8 µM, respectively.
Consider `COc1ccc(S(=O)(=O)N(C(C)=O)c2ccc(OC(C)=O)c3ccccc23)cc1[N+](=O)[O-]`, for which the IC50 was 3.38 µM in experiment [1] and 6.46 µM with Cytotoxicity.
The like results for `CN1CCC(OC(=O)c2cc3cc(Cl)cc(Cl)c3oc2=O)CC1` were, in that order, 1.64 µM and 44.5 µM.
In the case of `CC(=O)Oc1ccccc1C(=O)Oc1ccc(/C=N/n2cnnc2)cc1`, the IC50 entry in experiment [1] is “inactive”. Besides, in the experiment with Cytotoxicity, the IC50 was 59.5 µM (inactive).
Regarding `O=C(c1cncc(Br)c1)N1CCc2ccccc2C1`, the results for the IC50 (in experiment [1]; in the experiment with Cytotoxicity) were 8.73 µM and > 79 µM (inactive), respectively.
On to `CCN(CC)S(=O)(=O)c1ccc(NC(=O)Nc2cccc(C(F)(F)F)c2)cc1`, for which the IC50 was 6.03 µM in experiment [1] and 12.2 µM in the experiment with Cytotoxicity.
As to `ON=C1c2ccccc2-c2cc(Br)ccc21`, the 50% inhibitory concentration (IC50) is 1.87 µM in experiment [1] and 41.4 µM in the experiment on Cytotoxicity.
In the case of `FC(F)(F)c1nnc2c(Sc3ccc(Cl)cc3)nc3ccccc3n12`, the figures for the IC50 (in experiment [1]; in the experiment with Cytotoxicity) were 0.859 µM and 1.03 µM, respectively.
In the case of `CCOC(=O)C1=C(CC)Nc2ccccc2N=C1NC(=O)c1oc2ccccc2c1C`, the figures for the 50% inhibitory concentration (IC50) (in experiment [1]; with Cytotoxicity) were 4.43 µM and 6.1 µM, respectively.
In the case of `NC(=O)c1sc2nccc(Nc3ccccc3)c2c1N`, the IC50 in experiment [1] is 0.374 µM; with Cytotoxicity, 40 µM.
The like results for `CN(C)C=Nc1c(C(=O)c2ccccc2)sc2nccc(N(C)C)c12` were, in that order, 10.9 µM and > 79 µM (inactive).
`C=CCN1c2ccccc2Sc2cnccc21`: the IC50 in experiment [1] was 2.59 µM; with Cytotoxicity it was 40.6 µM.
Take `Cc1ccc(C(=O)Nc2cccc(C(F)(F)F)c2)cc1NC(=O)c1nccnc1N`: the values for the 50% inhibitory concentration (IC50) (in experiment [1]; with Cytotoxicity) were 8.15 µM and 9.52 µM, respectively.
Take `C=CCSc1nsc(NC(=O)Nc2cccc(C(C)=O)c2)n1`: the figures for the IC50 (in experiment [1]; with Cytotoxicity) were 1.44 µM and 6.08 µM, respectively.
In the case of `Cc1ccc2occ(/C=N/NC(=O)c3ccccc3Br)c(=O)c2c1`, the 50% inhibitory concentration (IC50) was 4.98 µM in experiment [1] and 40.4 µM in the experiment on Cytotoxicity.
For `COc1ccc2[nH]c3c(c2c1)CCNC3=O`, the IC50 in experiment [1] is 1.37 µM; in the experiment with Cytotoxicity it was > 79 µM (inactive).
For the compound `CC(C)c1nc(Cl)c(C#N)c2c1CCCC2`, the values for the IC50 (in experiment [1]; in the experiment with Cytotoxicity) were 3.57 µM and 71.6 µM (inactive), respectively.
On to `Cc1nc2sc(C(N)=O)c(N)c2c(C)c1CC(=O)c1ccccc1`, for which the half-maximal inhibitory concentration (IC50) is 10.7 µM in experiment [1] and > 79 µM (inactive) in the experiment with Cytotoxicity.
As to `COc1ccc(-c2cc(=O)oc3c(C)c(OC(=O)c4cccs4)ccc23)cc1`, the 50% inhibitory concentration (IC50) in experiment [1] is 1.6 µM; in the experiment with Cytotoxicity it was > 79 µM (inactive).
`C[C@@H]1C[C@@H]([C@H](O)CC2CC(=O)NC(=O)C2)C(=O)[C@@H](C)C1`: the half-maximal inhibitory concentration (IC50) in experiment [1] is 0.46 µM; in the experiment with Cytotoxicity it was 11.6 µM.
As for `COc1ccc(-c2[nH]ncc2-c2ccc3c(c2)OCCO3)c(O)c1`, the IC50 in experiment [1] was 0.186 µM; in the experiment on Cytotoxicity, 65.4 µM (inactive).
With `CNc1ccc2ncc(-c3ccc(OC)c(OC)c3)n2n1`, the IC50 is 0.535 µM in experiment [1] and 15.8 µM in the experiment with Cytotoxicity.
For `Cc1ccnc(NC(=O)CCCOc2cc(=O)n(C)c3ccccc23)c1`, the concentration for half-maximal inhibition (IC50) in experiment [1] was 11.2 µM; with Cytotoxicity, 62.3 µM (inactive).
In the case of `COc1ccc(-c2cncnc2-c2ccc(OC)cc2O)cc1`, the results for the IC50 (in experiment [1]; in the experiment with Cytotoxicity) were 4.39 µM and > 79 µM (inactive), respectively.
For `Cc1ccc2occ(/C=N/NC(=O)c3ccccc3C)c(=O)c2c1`, the IC50 is 1.36 µM in experiment [1] and 43.2 µM in the experiment with Cytotoxicity.
For `COc1ccc2c(c1OC)C(=O)N1c3ccccc3C(=O)N(c3ccccc3)C21` (stereo not drawn), the IC50 in experiment [1] was 0.902 µM; in the experiment on Cytotoxicity, 2.94 µM.
As to `Cc1ccc(Cl)cc1-c1cc(C(=O)NCc2cc(C(F)(F)F)cc(C(F)(F)F)c2)[nH]n1`, the 50% inhibitory concentration (IC50) in experiment [1] was 8.92 µM; in the experiment on Cytotoxicity it was 16.6 µM.
Consider `COc1ccc(-c2csc3ncnc(NCCN4CCOCC4)c23)cc1`, for which the results for the IC50 (in experiment [1]; with Cytotoxicity) were 3.79 µM and 47 µM, respectively.
For `Cc1cc(C)c2nc(C(F)(F)F)c(C#N)c(N)c2c1`, in that order: 0.827 µM and 24.6 µM.
Regarding `Nc1ncnc(N2CCc3ccccc32)c1[N+](=O)[O-]`, the IC50 is 0.651 µM in experiment [1] and 29.7 µM in the experiment with Cytotoxicity.
For `C=C1C(=O)OC2CC3(C)OC3CCC(C)=CC(OC(C)=O)C12` (stereo not drawn), the IC50 in experiment [1] was 2.27 µM; in the experiment on Cytotoxicity, 2.35 µM.
On to `Cc1ccc(NC(=O)c2cc(C(=O)c3cc(Cl)ccc3O)cn(-c3ccc(C)cc3)c2=O)cc1`, for which the values for the IC50 (in experiment [1]; with Cytotoxicity) were 9.4 µM and 53 µM (inactive), respectively.
For `Fc1cccc(Cl)c1/C=N/Nc1c(Cl)cncc1Cl`, in that order: 5.83 µM and 26.2 µM.
`C[C@H]1C[C@@H](C)C(=O)[C@@H]([C@H](O)CC2CC(=O)NC(=O)C2)C1`: the half-maximal inhibitory concentration (IC50) was 0.37 µM in experiment [1] and 8.86 µM in the experiment with Cytotoxicity.
For the compound `COc1ccc(COc2cc(-c3cccc(OC)c3)nc3ccc(NC(=O)c4cccnc4)cc23)cc1`, the IC50 was 4.27 µM in experiment [1] and 11.5 µM in the experiment with Cytotoxicity.
The like results for `C=C(c1ccc2nc(NC(=O)OC)[nH]c2c1)c1cccs1` were, in that order, 5.04 µM and 25.6 µM.
For `Cn1c(SC2=CS(=O)(=O)c3ccccc32)nc2ccccc21`, the IC50 is 1.83 µM in experiment [1] and 7.01 µM with Cytotoxicity.
For `CCC(Oc1ccccc1)C(=O)Nc1ncc([N+](=O)[O-])s1` (stereo not drawn), the IC50 is 9.05 µM in experiment [1] and 31 µM in the experiment on Cytotoxicity.
For `CC(C)CNC(=O)c1coc(=O)c(Br)c1`, in that order: 4.35 µM and 8.73 µM.
For `C[C@@H]1CN([C@H](C)CO)C(=O)c2cc(NC(=O)Nc3ccc(C(F)(F)F)cc3)ccc2O[C@H]1CN(C)S(=O)(=O)c1cccs1`, in that order: 5.41 µM and 54.9 µM (inactive).
`Cc1ccc(S(=O)(=O)/N=C(\CCl)N2CCOCC2)cc1`: the results for the concentration for half-maximal inhibition (IC50) (in experiment [1]; in the experiment on Cytotoxicity) were 2.38 µM and 9.62 µM, respectively.
For `CCOc1cc(Br)c(Br)c(C=Nc2ccc(NC(C)=O)cc2)c1O`, in that order: 3.91 µM and > 79 µM (inactive).
Turning to `Cc1ccc(-n2cc(-c3ccccc3)c3c(N4CCOCC4)ncnc32)cc1`, the IC50 in experiment [1] was 3.49 µM; with Cytotoxicity, 3.85 µM.

The IC50 is the point on the concentration scale where inhibition reaches its midpoint.

The values above are taken from PubChem BioAssay AID624344 (Sanford-Burnham Center for Chemical Genomics, 2012).
